Measurements: US20260130952A1, “ENGINEERED BACTERIA AND METHODS OF USE IN TUMOR REMODELING” (priority 2021, published 2026)

Tested on: 4T1 tumors
Assay: Antitumor study in 4T1 syngeneic tumor model
Assay type: in vivo, BALB/cJ mice
Protocol: 6-8 weeks old female BALB/cJ and male C57BL/6 mice (Jackson Labs) were used in all experiments. For tumor induction, […] tumor cells/0.1 ml saline (4T1, MDA-MB-231, RInk1, PANC1, MC38) were injected subcutaneously in the shaved right flank of anesthetized (2% isoflurane) mice. Tumor measurements were taken every alternate day and tumor volume was calculated using the following formula: 0.5*length*width*width. For therapeutic assessment or bioluminescent imaging, each bacterial dose contained […] bacteria suspended in 0.1 ml saline was administered intravenously. Lapatinib was suspended in a solution containing 0.5% w/v HPMC and 0.10% w/v Tween 80 and each dose delivered 5 mg/Kg orally. At the study end point the mice were euthanized via carbon dioxide inhalation and cervical dislocation followed by collection of organs. For cytokine profiling, blood withdrawal was performed after a period of 24 hours via the submandibular vein and collected in tubes containing heparin as an anticoagulant (40 U/ml of blood). […]
To test the hypothesis, mice were treated orally with lapatinib at a dose of 5 mg/kg (FIG. 5A). The following 5 treatment groups were assessed in parallel: control mice with saline injections, non-hypervesiculating ECHy+lapatinib, ΔECHy, lapatinib and ΔECHy+lapatinib (n=5). Tumor volume was measured every alternate day. […]

CS(=O)(=O)CCNCc1ccc(-c2ccc3ncnc(Nc4ccc(OCc5cccc(F)c5)c(Cl)c4)c3c2)o1 [lapatinib]
median survival (endpoint tumor size 1000 mm^3, bacteria 10^6 i.v., lapatinib 5 mg/kg oral, anti-PDL1 5 mg/kg): 20 days | tumor growth rate / progression (n=5): comparatively slower
